In one experiment the target is BRM (Homo sapiens, UniProt P51531). As to the kind of experiment: ATPase catalytic activity assay of BRM (ADP-Glo). The experiment is classed as biochemical. The following applies: for IC50: read-out: BRM IC50 (μM)*. In outline:
(§1)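 ATPase activity of BRG-1 or BRM was read by ADP-Glo. Residual ATP was depleted (40 min, room temperature), then ADP was converted to ATP (60 min, room temperature) and measured as luciferase luminescence.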
Background: ADP-Glo turns the ADP formed in a reaction into a luminescent signal.

A further experiment addresses BRG-1 (Homo sapiens, UniProt P51532). As to the kind of experiment: ATPase catalytic activity assay of BRG-1 (ADP-Glo). Format: biochemical. The note with it: ATPase catalytic activity, ADP-Glo; for IC50: read-out: BRG1 IC50 (μM)*; for Emax: read-out: BRG1 Max % Inhibition. In outline: as §1

Like-named read-outs stand apart in the source and are kept apart here.

BRG-1, sequence (P51532 whole entry): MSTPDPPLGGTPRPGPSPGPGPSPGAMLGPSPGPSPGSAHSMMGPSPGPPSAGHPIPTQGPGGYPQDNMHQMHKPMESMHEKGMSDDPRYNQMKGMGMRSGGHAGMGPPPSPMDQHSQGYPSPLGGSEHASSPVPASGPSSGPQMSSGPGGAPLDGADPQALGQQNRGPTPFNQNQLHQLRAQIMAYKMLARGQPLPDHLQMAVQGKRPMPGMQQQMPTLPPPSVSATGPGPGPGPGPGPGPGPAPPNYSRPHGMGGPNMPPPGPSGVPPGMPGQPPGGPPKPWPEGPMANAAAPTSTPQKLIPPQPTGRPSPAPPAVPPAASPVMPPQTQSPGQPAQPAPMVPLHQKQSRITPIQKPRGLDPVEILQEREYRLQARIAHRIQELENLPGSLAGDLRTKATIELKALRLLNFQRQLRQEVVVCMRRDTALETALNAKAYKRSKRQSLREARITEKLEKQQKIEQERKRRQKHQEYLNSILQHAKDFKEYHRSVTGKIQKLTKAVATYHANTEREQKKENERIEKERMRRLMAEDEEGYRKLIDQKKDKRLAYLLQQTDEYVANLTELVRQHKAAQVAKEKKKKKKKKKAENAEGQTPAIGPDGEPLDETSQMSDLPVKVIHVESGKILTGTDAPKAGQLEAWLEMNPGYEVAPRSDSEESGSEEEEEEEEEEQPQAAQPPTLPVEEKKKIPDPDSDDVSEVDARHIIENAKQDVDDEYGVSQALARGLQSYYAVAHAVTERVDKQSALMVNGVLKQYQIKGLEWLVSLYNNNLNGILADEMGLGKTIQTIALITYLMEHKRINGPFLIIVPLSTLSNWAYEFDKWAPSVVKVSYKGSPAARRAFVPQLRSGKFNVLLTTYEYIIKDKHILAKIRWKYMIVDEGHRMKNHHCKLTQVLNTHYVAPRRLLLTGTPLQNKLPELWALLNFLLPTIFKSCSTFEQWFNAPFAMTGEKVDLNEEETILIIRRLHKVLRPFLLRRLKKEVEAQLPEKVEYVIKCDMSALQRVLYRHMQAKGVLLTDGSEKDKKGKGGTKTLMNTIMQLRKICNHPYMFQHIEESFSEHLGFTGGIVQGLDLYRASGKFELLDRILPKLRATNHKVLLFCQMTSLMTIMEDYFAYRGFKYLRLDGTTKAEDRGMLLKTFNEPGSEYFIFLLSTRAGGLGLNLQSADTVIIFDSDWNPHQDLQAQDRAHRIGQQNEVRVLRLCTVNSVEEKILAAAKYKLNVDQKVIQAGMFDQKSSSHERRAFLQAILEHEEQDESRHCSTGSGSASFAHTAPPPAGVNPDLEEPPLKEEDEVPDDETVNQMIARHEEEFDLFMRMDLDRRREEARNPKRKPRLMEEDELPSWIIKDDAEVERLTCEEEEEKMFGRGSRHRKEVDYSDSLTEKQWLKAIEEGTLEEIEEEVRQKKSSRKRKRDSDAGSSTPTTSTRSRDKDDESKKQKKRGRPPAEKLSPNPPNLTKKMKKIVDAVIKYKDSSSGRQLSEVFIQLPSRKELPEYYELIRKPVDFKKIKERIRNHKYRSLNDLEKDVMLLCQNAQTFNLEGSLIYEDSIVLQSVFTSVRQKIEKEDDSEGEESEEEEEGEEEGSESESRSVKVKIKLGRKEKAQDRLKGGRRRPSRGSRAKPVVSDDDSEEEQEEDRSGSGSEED
BRM, sequence (P51531 whole entry): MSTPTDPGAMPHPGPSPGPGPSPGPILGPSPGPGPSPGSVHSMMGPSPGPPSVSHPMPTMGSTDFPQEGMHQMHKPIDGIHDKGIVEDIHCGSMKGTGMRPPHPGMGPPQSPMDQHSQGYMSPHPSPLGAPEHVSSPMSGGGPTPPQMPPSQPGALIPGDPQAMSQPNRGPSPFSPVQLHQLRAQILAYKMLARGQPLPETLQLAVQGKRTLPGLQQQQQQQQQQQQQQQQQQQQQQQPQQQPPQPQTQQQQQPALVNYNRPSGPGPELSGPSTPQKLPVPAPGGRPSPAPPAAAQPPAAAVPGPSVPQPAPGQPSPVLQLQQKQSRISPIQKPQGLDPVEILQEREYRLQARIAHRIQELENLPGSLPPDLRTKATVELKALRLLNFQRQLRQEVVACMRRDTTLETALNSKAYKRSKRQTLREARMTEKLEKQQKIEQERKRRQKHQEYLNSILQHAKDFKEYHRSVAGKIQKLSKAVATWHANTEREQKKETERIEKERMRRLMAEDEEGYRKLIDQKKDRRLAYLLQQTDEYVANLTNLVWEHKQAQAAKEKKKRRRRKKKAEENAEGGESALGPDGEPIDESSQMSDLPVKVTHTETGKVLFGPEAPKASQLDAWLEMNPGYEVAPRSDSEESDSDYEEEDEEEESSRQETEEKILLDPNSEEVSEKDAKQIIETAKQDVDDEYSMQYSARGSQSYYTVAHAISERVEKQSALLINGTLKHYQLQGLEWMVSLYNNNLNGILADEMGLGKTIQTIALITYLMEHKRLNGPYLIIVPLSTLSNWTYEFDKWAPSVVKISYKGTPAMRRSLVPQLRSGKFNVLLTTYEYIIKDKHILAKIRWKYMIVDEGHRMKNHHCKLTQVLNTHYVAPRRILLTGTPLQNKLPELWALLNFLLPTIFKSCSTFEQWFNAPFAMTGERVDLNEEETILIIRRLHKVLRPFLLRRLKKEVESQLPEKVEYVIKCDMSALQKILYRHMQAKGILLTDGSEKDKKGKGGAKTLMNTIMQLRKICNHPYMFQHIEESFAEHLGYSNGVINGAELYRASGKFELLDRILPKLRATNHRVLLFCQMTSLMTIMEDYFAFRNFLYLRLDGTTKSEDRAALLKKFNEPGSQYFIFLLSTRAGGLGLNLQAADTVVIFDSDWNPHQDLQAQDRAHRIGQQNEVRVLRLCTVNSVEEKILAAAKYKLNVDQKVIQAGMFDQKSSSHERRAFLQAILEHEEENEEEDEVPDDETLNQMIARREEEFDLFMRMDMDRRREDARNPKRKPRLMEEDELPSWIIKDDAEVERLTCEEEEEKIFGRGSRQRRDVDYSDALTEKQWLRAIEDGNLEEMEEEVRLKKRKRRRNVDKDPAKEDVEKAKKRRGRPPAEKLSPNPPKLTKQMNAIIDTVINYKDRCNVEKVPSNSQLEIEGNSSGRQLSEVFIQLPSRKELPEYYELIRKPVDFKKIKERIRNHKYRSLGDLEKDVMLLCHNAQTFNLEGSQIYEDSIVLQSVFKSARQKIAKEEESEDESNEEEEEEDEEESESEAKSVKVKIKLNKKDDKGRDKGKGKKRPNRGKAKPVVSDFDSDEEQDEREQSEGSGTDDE

In general, IC50 refers to the concentration needed to halve the response being measured. As to `COc1cccc(-c2csc(NC(=O)CNC(=O)c3ccc4c(c3)[C@](C)(C#N)COC4)n2)c1F` [Compound 402, (R)-4-cyano-N-(2-((4-(2-fluoro-3-methoxyphenyl)thiazol-2-yl)amino)-2-oxoethyl)-4-methylisochromane-6-carboxamide], at BRM, the “BRM Max % Inhibition” value is over 95% and the half-maximal inhibitory concentration (IC50) is under 0.1 µM. Also, on BRG-1, the 50% inhibitory concentration (IC50) was under 0.1 µM and the Emax is over 95%.
With `C[C@@H]1CN(c2cccc(-c3csc(NC(=O)CNC(=O)c4ccc5c(c4)[C@](C)(CO)CN5C)n3)c2)C[C@H](C)O1` [Compound 403, (S)-N-(2-((4-(3-((cis)-2,6-dimethylmorpholino)phenyl)thiazol-2-yl)amino)-2-oxoethyl)-3-(hydroxymethyl)-1,3-dimethylindoline-5-carboxamide], on BRM, the “BRM Max % Inhibition” value is given as over 90% and the concentration for half-maximal inhibition (IC50) was in the range of 0.1 to 1 µM. For the same compound, on BRG-1, the IC50 lay within 1 to 5 µM and the Emax is over 90%.
The matching figures for `C[C@@H]1CN(c2cccc(-c3csc(NC(=O)CNC(=O)c4ccc5c(c4)[C@@](C)(CO)CN5C)n3)c2)C[C@H](C)O1` [Compound 404, (R)-N-(2-((4-(3-((cis)-2,6-dimethylmorpholino)phenyl)thiazol-2-yl)amino)-2-oxoethyl)-3-(hydroxymethyl)-1,3-dimethylindoline-5-carboxamide]: over 80%, 0.1 to 1 µM, over 5 µM and over 80%.
Take `C[C@@H]1CN(c2cccc(-c3csc(NC(=O)CNC(=O)c4ccc5c(c4)C4(CC4)COC5)n3)n2)C[C@H](C)O1` [Compound 406, N-(2-((4-(6-((cis)-2,6-dimethylmorpholino)pyridin-2-yl)thiazol-2-yl)amino)-2-oxoethyl)spiro[cyclopropane-1,4′-isochromane]-6′-carboxamide]: on BRM, the “BRM Max % Inhibition” value is recorded as over 95% and the IC50 was under 0.1 µM. On BRG-1, the IC50 was 0.1 to 1 µM and the Emax is over 95%.
On to `C[C@@H]1CN(c2cccc(-c3csc(NC(=O)CNC(=O)c4cccc([C@]5(C)COC[C@H]5O)c4)n3)n2)C[C@H](C)O1` [Compound 408], for which, on BRM, the “BRM Max % Inhibition” value is listed as over 90% and the IC50 was 0.1 to 1 µM. Further, on BRG-1, the concentration for half-maximal inhibition (IC50) lay within 1 to 5 µM and the Emax was over 90%.
`C[C@@H]1CN(c2cccc(-c3csc(NC(=O)CNC(=O)c4ccc5c(c4)[C@](C)(F)COC5)n3)n2)C[C@H](C)O1` [Compound 409, (S)-N-(2-((4-(6-((cis)-2,6-dimethylmorpholino)pyridin-2-yl)thiazol-2-yl)amino)-2-oxoethyl)-4-fluoro-4-methylisochromane-6-carboxamide]: on BRM, the “BRM Max % Inhibition” value is over 95% and the concentration for half-maximal inhibition (IC50) is under 0.1 µM. Also, at BRG-1, the concentration for half-maximal inhibition (IC50) was under 0.1 µM and the Emax was over 95%.
Consider `C[C@@H]1CN(c2cccc(-c3csc(NC(=O)CNC(=O)c4ccc5c(c4)[C@@]4(COC5)CC4(F)F)n3)n2)C[C@H](C)O1` [Compound 410, (R)-N-(2-((4-(6-((cis)-2,6-dimethylmorpholino)pyridin-2-yl)thiazol-2-yl)amino)-2-oxoethyl)-2,2-difluorospiro[cyclopropane-1,4′-isochromane]-6′-carboxamide], for which, on BRM, the “BRM Max % Inhibition” value was over 95% and the IC50 was under 0.1 µM. On BRG-1, the 50% inhibitory concentration (IC50) was 1 to 5 µM and the Emax was over 95%.
The corresponding values for `C[C@@H]1CN(c2cccc(-c3csc(NC(=O)CNC(=O)c4ccc5c(c4)[C@]4(COC5)CC4(F)F)n3)n2)C[C@H](C)O1` [Compound 411, (S)-N-(2-((4-(6-((cis)-2,6-dimethylmorpholino)pyridin-2-yl)thiazol-2-yl)amino)-2-oxoethyl)-2,2-difluorospiro[cyclopropane-1,4′-isochromane]-6′-carboxamide] are over 90%, 0.1 to 1 µM, over 5 µM and over 90%.
The corresponding values for `C[C@@H]1CN(c2cccc(-c3csc(NC(=O)CNC(=O)c4ccc5c(c4)[C@@](C)(F)COC5)n3)n2)C[C@H](C)O1` [Compound 412, (R)-N-(2-((4-(6-((cis)-2,6-dimethylmorpholino)pyridin-2-yl)thiazol-2-yl)amino)-2-oxoethyl)-4-fluoro-4-methylisochromane-6-carboxamide] are over 90%, 0.1 to 1 µM, 0.1 to 1 µM and over 90%.
`COc1cccc(-c2csc(NC(=O)CNC(=O)c3ccc4c(c3)C(C)(C#N)CCN4)n2)c1` (stereo not drawn) [Compound 415, 4-cyano-N-(2-((4-(3-methoxyphenyl)thiazol-2-yl)amino)-2-oxoethyl)-4-methyl-1,2,3,4-tetrahydroquinoline-6-carboxamide]: on BRM (30 nM BRM, 400 μM ATP), the “BRM Max % Inhibition” value is given as over 90% and the IC50 is 0.1 to 1 µM. At BRG-1 (30 nM BRG-1, 400 μM ATP), the half-inhibitory concentration (IC50) was over 5 µM and the Emax was over 90%.
The corresponding values for `C[C@@H]1CN(c2cccc(-c3csc(NC(=O)CNC(=O)c4cccc(C5(C#N)COC5)c4)n3)c2)C[C@H](C)O1` [Compound 418, 3-(3-cyanooxetan-3-yl)-N-(2-((4-(3-((cis)-2,6-dimethylmorpholino)phenyl)thiazol-2-yl)amino)-2-oxoethyl)benzamide] are over 95%, under 0.1 µM, 0.1 to 1 µM and over 95%.
The matching figures for `C[C@@H]1CN(c2cccc(-c3csc(NC(=O)CNC(=O)c4cccc(C5(C(F)F)COC5)c4)n3)c2)C[C@H](C)O1` [Compound 419, 3-(3-(difluoromethyl)oxetan-3-yl)-N-(2-((4-(3-((cis)-2,6-dimethylmorpholino)phenyl)thiazol-2-yl)amino)-2-oxoethyl)benzamide]: over 95%, under 0.1 µM, 0.1 to 1 µM and over 95%.
Turning to `CO[C@H]1C[C@@](F)(c2cccc(C(=O)NCC(=O)Nc3nc(-c4cccc(N5C[C@@H](C)O[C@@H](C)C5)n4)cs3)c2)C1` [Compound 426, N-(2-((4-(6-((cis)-2,6-dimethylmorpholino)pyridin-2-yl)thiazol-2-yl)amino)-2-oxoethyl)-3-((cis)-1-fluoro-3-methoxycyclobutyl)benzamide], at BRM (30 nM BRM, 400 μM ATP), the “BRM Max % Inhibition” value is recorded as over 95% and the half-maximal inhibitory concentration (IC50) lay in the range of 0.1 to 1 µM. At BRG-1 (30 nM BRG-1, 400 μM ATP), the IC50 lay in the range of 1 to 5 µM and the Emax is over 95%.
The corresponding values for `Cn1ccc2ccc(-c3csc(NC(=O)CNC(=O)c4ccc5c(c4)[C@@](C)(C#N)CCO5)n3)cc2c1=O` [Compound 433, (S)-4-cyano-4-methyl-N-(2-((4-(2-methyl-1-oxo-1,2-dihydroisoquinolin-7-yl)thiazol-2-yl)amino)-2-oxoethyl)chromane-6-carboxamide] are over 95%, under 0.1 µM, 0.1 to 1 µM and over 95%.
With `C[C@@H]1CN(c2cccc(-c3csc(NC(=O)[C@H](CO)NC(=O)c4ccnc(C(C)(C)C)c4)n3)c2)C[C@H](C)O1` [Compound 434, 2-(tert-butyl)-N-((S)-1-((4-(3-((cis)-2,6-dimethylmorpholino)phenyl)thiazol-2-yl)amino)-3-hydroxy-1-oxopropan-2-yl)isonicotinamide], on BRM (30 nM BRM, 400 μM ATP), the “BRM Max % Inhibition” value is given as over 90% and the half-inhibitory concentration (IC50) fell in the range of 0.1 to 1 µM. Besides, on BRG-1 (30 nM BRG-1, 400 μM ATP), the IC50 lay within 1 to 5 µM and the Emax is over 90%.
